We go through 26 compounds from patent EP4793271A1, “NEUROPROTECTIVE AGENT” (National Center of Neurology and Psychiatry, priority 2023, dated 2025).

Molecules are shown by their SMILES. Some results are limits rather than exact numbers.

In assay [1] the test system is primary cultured cells of mouse fetus-derived dorsal root ganglia (DRGs). As to the kind of experiment: Suppression of axonal degeneration after axotomy in DRG explant culture. It counts as cell-based. The following applies: Mus musculus; minimum concentration at which axonal degeneration was suppressed (DI 0.3 or less); 24 hours after axotomy; read-out: Evaluation on protection against degeneration. How it is done:
The compound of the present invention was studied for its protective effect against axonal injury using primary cultured cells of mouse fetus-derived dorsal root ganglia (DRGs).
DRGs were collected from a fetus derived from an ICR mouse (13.5 days of pregnancy). DRGs were cultured using a plate coated by incubation with 0.1 mg/mL poly-L-lysine at 4°C for 24 hours or longer, washing with PBS, and then incubation with 2.5 µg/mL Cultrex Mouse Laminin I at 37°C for 4 to 6 hours.
One of DRGs collected was plated to each well of the coated 24-well plate. The DRG was cultured in a nicotinamide-free medium for neuron (supplemented with 10% FBS, 1 mM glutamine, 50 ng/mL NGF2.5S, and penicillin-streptomycin) for 24 hours at maximum from the start of culture and then cultured in a nicotinamide-free medium for neuron (supplemented with 2% MACS NeuroBrew-21, 50 ng/mL NGF2.5S, 1% Glutamax, 20 µM uridine, 20 µM 5-fluoro-2'-deoxyuridine, and penicillin-streptomycin) for 7 to 8 days.
The nicotinamide-free medium for neuron was prepared so as to have the same constituents as those of the composition published in a previously reported paper (Brewer et al., J. Neuroscience Research 35: 567-576) except for nicotinamide with reference to this composition.
The test compound is dissolved in DMSO and added to cells such that the final concentration of DMSO is 0.1% (1000-fold dilution). 10 mM, 1 mM, 100 µM, 10 µM, 1 µM, and 100 nM samples of the test compound are prepared and added at a 1000-fold dilution to cells.
Axotomy was carried out by scooping out a cell body portion of the cultured DRG with a chip for a micropipette. The test compound was added at the following concentrations (final concentration: 10 µM, 1 µM, 100 nM, 10 nM, 1 nM, and 100 pM) within 30 minutes after axotomy. The compound was evaluated for its protective effect against axonal degeneration by imaging (Leica DMIL microscope, 20× objective lens) the state of neurites 24 hours after axotomy and evaluating the degree of degeneration. The degree of degeneration was quantified using a program uniquely developed using the R language. A degeneration index (DI) was used as an indicator for the degree of degeneration, and the ratio of the area of a fragmented axon to the total area of axons was calculated as defined in the equation of Expression 2. Suppressed axonal degeneration was evaluated when the value of DI was 0.3 or less. The minimum concentration at which axonal degeneration was suppressed was determined for each compound. Degeneratioin index (DI) = (Degenerated axons)/(All axons) [formula]
The axonal protective activity was evaluated as A ≤ 0.01 µM, 0.01 µM < B ≤ 0.1 µM, and 0.1 µM < C ≤ 1 µM depending on the minimum concentration at which axonal degeneration was suppressed.

The target of assay [2] is T1, nicotinamide phosphoribosyl transferase (NAMPT) (Homo sapiens, UniProt P43490).
T1 construct: purchased Medical & Biological Laboratories Co., Ltd. (MBL)
T1 sequence (P43490 whole entry, species assumed): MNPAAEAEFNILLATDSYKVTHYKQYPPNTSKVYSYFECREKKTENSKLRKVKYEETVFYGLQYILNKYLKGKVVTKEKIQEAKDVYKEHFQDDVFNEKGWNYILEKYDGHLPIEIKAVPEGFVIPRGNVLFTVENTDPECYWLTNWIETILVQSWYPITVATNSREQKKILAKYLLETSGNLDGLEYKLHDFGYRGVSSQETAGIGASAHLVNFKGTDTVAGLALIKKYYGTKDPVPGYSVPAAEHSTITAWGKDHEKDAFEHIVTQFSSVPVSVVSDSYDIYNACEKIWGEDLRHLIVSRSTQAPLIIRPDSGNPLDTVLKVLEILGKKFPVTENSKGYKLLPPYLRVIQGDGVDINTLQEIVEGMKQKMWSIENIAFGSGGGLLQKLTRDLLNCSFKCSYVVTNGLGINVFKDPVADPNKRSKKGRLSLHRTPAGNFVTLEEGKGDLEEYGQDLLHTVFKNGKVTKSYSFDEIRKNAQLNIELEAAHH
In words: NAMPT activity measurement (NMN fluorescence detection). It counts as biochemical. The note with it: NAMPT recombinant protein, 10 µM Nam; for IC50: read-out: Evaluation on NAMPT inhibitory. How it is done: The compound of the present invention was evaluated for the ability to influence the activity of nicotinamide phosphoribosyl transferase (NAMPT) which is an enzyme that metabolizes nicotinamide (Nam), not the target SARM1.
The enzymatic reaction of NAMPT was carried out by adding NAMPT recombinant protein (manufactured by Medical & Biological Laboratories Co., Ltd. (MBL)) to a reaction solution containing the substrate Nam, phosphoribosylpyrophosphate (PRPP), ATP, and the like (composition: […] (pH = 7.4), 2 µM ATP, 0.5 µM PRPP, 0.02% BSA, 2 µM DTT, 1.2 µM MgCl2, and 10 µM Nam). The amount of the reaction product NMN was detected by detecting the fluorescent signal of a fluorescent substance obtained through the reaction of 2-acetylbenzofuran with NMN using SpectraMax M2 (Molecular Devices) (excitation: 421 nm, fluorescence: 480 nm) (Moriya et al, Chemical Communications 2013, 49 11500). The test compound was added at final concentrations of 10 µM, 3 µM, 1 µM, 300 nM, 100 nM, 30 nM, 10 nM, and 3 nM to the NMN synthesis reaction system described above. The NMN-derived fluorescent signal was normalized against a control group and plotted as the function of the test compound concentrations, and the compound was evaluated for its NAMPT inhibitory effect by calculating IC50.
The IC50 value was evaluated as ∘ for ≥1 µM and as Δ for ≥0.1 µM.

In assay [3] the target is T2, hSARM1 (Homo sapiens, UniProt Q6SZW1).
T2 sequence (Q6SZW1 28-724): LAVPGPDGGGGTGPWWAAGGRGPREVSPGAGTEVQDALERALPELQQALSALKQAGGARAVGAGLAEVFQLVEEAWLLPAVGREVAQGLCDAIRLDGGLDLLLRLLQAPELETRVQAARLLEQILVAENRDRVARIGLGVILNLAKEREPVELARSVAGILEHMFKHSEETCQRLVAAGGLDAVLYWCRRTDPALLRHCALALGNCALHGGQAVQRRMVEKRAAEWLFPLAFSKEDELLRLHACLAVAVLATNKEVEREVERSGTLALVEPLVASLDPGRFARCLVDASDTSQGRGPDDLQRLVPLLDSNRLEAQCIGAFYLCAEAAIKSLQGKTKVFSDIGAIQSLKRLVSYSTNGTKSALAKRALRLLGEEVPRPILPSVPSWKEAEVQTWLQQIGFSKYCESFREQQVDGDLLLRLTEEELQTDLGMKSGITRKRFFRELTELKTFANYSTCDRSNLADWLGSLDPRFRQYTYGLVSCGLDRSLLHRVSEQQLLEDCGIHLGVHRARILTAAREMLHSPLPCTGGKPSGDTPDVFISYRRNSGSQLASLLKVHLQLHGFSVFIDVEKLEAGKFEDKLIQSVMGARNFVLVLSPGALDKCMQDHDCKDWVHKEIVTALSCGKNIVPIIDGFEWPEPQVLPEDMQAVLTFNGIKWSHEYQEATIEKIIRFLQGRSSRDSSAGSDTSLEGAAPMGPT
As to the kind of experiment: Human SARM1 activity measurement in HEK293 cells transiently transfected with ΔN-hSARM1 (PC6 fluorescent probe). It counts as cell-based. On the set-up: expressed in transfected cells; host or cells: HEK293, pcDNA3 expression vector. The following applies: inhibition rate; compound 30 µM; PC6 50 µM; HEK293 cells expressing ΔN-hSARM1; approximately 48 hours from transfection; read-out: Evaluation on hSARM1 inhibitory. As for the experimental part: HEK293 cells cultured in a prepared medium of nicotinamide-free DMEM (Dulbecco's modified Eagle medium) supplemented with 10% FBS (BioSera), a 1% penicillin-streptomycin solution (FUJIFILM Wako Pure Chemical Corp.), 5 μM nicotinamide were inoculated at approximately 50,000 cells/well to a 96-well microplate, and the cells were cultured at 37°C under 5% CO2, transiently transfected on the next day with a pcDNA3 expression vector containing a DNA sequence (SEQ ID NO: 1) deficient in a mitochondrial targeting sequence encoded by an N-terminal 78-base sequence in cDNA encoding human sterile α- and armadillo-motif-containing protein (hSARM1) using PEI MAX(R) reagent (PolySciences Inc.), and forced to express ΔN-hSARM1 (SEQ ID NO: 2). Approximately 8 hours later, PC6, which reacts as a substrate of SARM1-specific base exchange reaction and functions as a fluorescent probe, was added thereto at a final concentration of 50 μM, and intracellular hSARM1 activity was measured (Li et al, eLife 2021 10: e67381). A compound for inhibitory activity evaluation was added at a final concentration of 30 μM at the same time with PC6, while dimethyl sulfoxide (Nacalai Tesque Inc.) was added to samples of a control group at the same time with PC6. The cells were incubated at 37°C under 5% CO2 for approximately 48 hours from transfection, followed by fluorescent signal measurement using SpectraMax M2 (Molecular Devices) (excitation: 405 nm, fluorescence: 525 nm, fluorescence cutoff: 515 nm). Results of this screening are reported as an inhibition rate (%) relative to a negative control defined as follows by using fluorescence intensity measured from a control group without transfection with ΔN-hSARM1 as a background whereas using fluorescence intensity measured from a control group transfected with ΔN-hSARM1 as the negative control. Inhibitory rate (%) = 100-(([…]-Background))/((Signalofthenegativecontrol-Background)) × 100 [formula] The nicotinamide-free medium was prepared so as to have the same composition as that of DMEM having known composition which is generally used in the art except for nicotinamide. […]

In the case of `NCc1cccc(CNC(=O)c2cccnc2)n1` [Compound 148], the minimal effective concentration in assay [1] was in the range of 0.1 to 1 µM. Besides, the “Evaluation on NAMPT inhibitory” value in assay [2] is listed as “○”.
Take `O=C(NCCCCC(NC(=O)c1cccnc1)C(=O)O)c1cccnc1` (stereo not drawn) [compound 45]: the “Evaluation on NAMPT inhibitory” value in assay [2] is recorded as “○”.
With `NCCOCCOCCNC(=O)c1cccnc1` [compound 107], in assay [1], the minimal effective concentration was at most 0.01 µM. For the same compound, the “Evaluation on NAMPT inhibitory” value in assay [2] is given as “○”.
For `O=C(NCc1ccc(NC(=O)c2cccc3ccccc23)nc1)c1cccnc1` [Compound 121], the minimal effective concentration in assay [1] fell in the range of 0.01 to 0.1 µM. Further, in assay [2], the IC50 was at least 0.1 µM.
For `CCNC(=O)C(CCCNC(=O)c1cccnc1)NC(=O)c1cccnc1` (stereo not drawn) [compound 51], in assay [2], the “Evaluation on NAMPT inhibitory” value is reported as “○”.
As to `O=C(Nc1ccccc1CCc1ccccc1NC(=O)c1cccnc1)c1cccnc1` [compound 100], the minimal effective concentration in assay [1] was in the range of 0.01 to 0.1 µM. Further, in assay [2], the “Evaluation on NAMPT inhibitory” value is “○”.
For the compound `O=C(/C=C/c1cccnc1)NCc1ccccc1NC(=O)/C=C/c1cccnc1` [compound 60], in assay [2], the “Evaluation on NAMPT inhibitory” value is reported as “○”. For the same compound, the inhibition at 30 µM in assay [3] was over 10%.
On the same counts, the results for `O=C(NCCN(CCNC(=O)c1cccnc1)C(=O)c1cccnc1)c1cccnc1` [compound 36] are “○” and over 10%.
`NC(=O)C(CCCCNC(=O)c1cccnc1)NC(=O)c1cccnc1` (stereo not drawn) [compound 46]: in assay [2], the “Evaluation on NAMPT inhibitory” value was “○”.
`[N-]=[N+]=NCc1cccc(CNC(=O)c2cccnc2)n1` [compound 90]: the “Evaluation on NAMPT inhibitory” value in assay [2] is given as “○”. Besides, the inhibition at 30 µM in assay [3] is over 10%.
Take `COC(=O)C(CCCCNC(=O)c1cccnc1)NC(=O)c1cccnc1` (stereo not drawn) [compound 44]: the “Evaluation on NAMPT inhibitory” value in assay [2] was “○”.
For the compound `O=C(NCCCC(NC(=O)c1cccnc1)C(=O)O)c1cccnc1` (stereo not drawn) [compound 49], the “Evaluation on NAMPT inhibitory” value in assay [2] was “○”.
For the compound `CCNC(=O)C(CCCCNC(=O)c1cccnc1)NC(=O)c1cccnc1` (stereo not drawn) [compound 47], in assay [2], the “Evaluation on NAMPT inhibitory” value is on record as “○”.
`COC(=O)C(CCCNC(=O)c1cccnc1)NC(=O)c1cccnc1` (stereo not drawn) [compound 48]: in assay [1], the minimal effective concentration lay within 0.1 to 1 µM. Also, in assay [2], the “Evaluation on NAMPT inhibitory” value was “○”.
On to `NC(=O)C(CCCNC(=O)c1cccnc1)NC(=O)c1cccnc1` (stereo not drawn) [compound 50], for which, in assay [2], the “Evaluation on NAMPT inhibitory” value is “○”.
For `O=C(NCCCCCCCCOCCOc1ccc([N+](=O)[O-])c2nonc12)c1cccnc1` [compound 5], in assay [1], the minimal effective concentration was at most 0.01 µM. In assay [2], the IC50 is at least 0.1 µM.
Take `CN(C)c1ccc(/C=C/C(=O)Nc2ccc(CNC(=O)c3cccnc3)cn2)cc1` [Compound 181]: the minimal effective concentration in assay [1] was at most 0.01 µM. Also, the IC50 in assay [2] was at least 0.1 µM.
In the case of `O=C(NCCCCCC1CCN(CCO)CC1)c1cccnc1` [compound 2], the minimal effective concentration in assay [1] is at most 0.01 µM. Besides, in assay [2], the IC50 was at least 0.1 µM.
Turning to `CN(CCCCCCN(C)C(=O)c1cccnc1)C(=O)c1cccnc1` [compound 102], in assay [1], the minimal effective concentration was at most 0.01 µM. Also, the “Evaluation on NAMPT inhibitory” value in assay [2] is reported as “○”.
Turning to `O=C(NCc1ccc(NS(=O)(=O)c2ccccc2)nc1)c1cccnc1` [compound 79], the “Evaluation on NAMPT inhibitory” value in assay [2] was “○”. Further, in assay [3], the inhibition at 30 µM is over 10%.
In the same order, the values of `O=C(NCc1cccc(CNC(=O)c2cc(F)cc(F)c2)n1)c1cccnc1` [Compound 152] are “○” and over 25%.
Turning to `C#CCCOc1ccc(C(=O)NCCCCCCNC(=O)c2cccnc2)cc1` [compound 68], the minimal effective concentration in assay [1] was at most 0.01 µM. Moreover, the inhibition at 30 µM in assay [3] was over 75%.
With `CC(C)(C)OC(=O)N1CC(C(=O)Nc2ccc(CNC(=O)c3cccnc3)cn2)C1` [compound 94], in assay [1], the minimal effective concentration is at most 0.01 µM. In assay [3], the inhibition at 30 µM was over 75%.
On to `O=C(/C=C/c1cccnc1)NCCOCCOc1ccc(CNC(=O)c2ccccc2)cc1` [compound 14], for which, in assay [1], the minimal effective concentration is at most 0.01 µM. Besides, the inhibition at 30 µM in assay [3] was over 75%.
Regarding `O=C(/C=C/c1cccnc1)Nc1ccc(NC(=O)/C=C/c2cccnc2)cc1` [compound 58], the minimal effective concentration in assay [1] was at most 0.01 µM. Also, in assay [3], the inhibition at 30 µM was over 75%.
On the same counts, the results for `O=C(/C=C/c1ccccc1)NCc1ccc(CNC(=O)c2cccnc2)cc1` [compound 66] are at most 0.01 µM and over 75%.
